What was measured:
[1] = test system: Zucker diabetic fatty (ZDF) rat model; test: Chronic non-fasted blood glucose monitoring in ZDF rats, drug combined with pFUS ultrasound stimulation; type: in vivo
Description: The following relates to the diabetic animal model used and the method of ultrasound neuromodulation. • Animal Model of Type 2 Diabetes • Zucker diabetic fatty (ZDF) rat model Adult male ZDF rats (Charles River, Kingston, NY USA) were ordered for arrival prior to 8 weeks of age. All animals were maintained on a high caloric rodent chow (Purina 5008), provided, with water, provided ad libitum. […] All procedures performed in accordance with the National Institutes of Health (NIH) Guidelines under protocols approved by the Institutional Animal Care and Use Committee (IACUC) of GE Global Research. ZDF animals were acclimated by daily handling to prevent stress-induced changes in circulating glucose. […] All rats were anesthetized at 1-4% isoflurane at 1 L/min O2. Rats were then placed on a water circulating warming pad, with a rectal thermometer probe to maintain body temperature. The abdominal area was completely shaved and the hair fully removed with Nair to allow for later stimulation of nerve plexus located in either the hepatic or GI systems. […] These locations were then marked with a permanent marker and a ultrasound stimulation probe was placed on the target area. The prototype pFUS device then delivered 3 minutes of stimulation (1.1 MHz, 150 burst cycles, 500 us burst period) Blood glucose levels of the rats were monitored on a daily basis for chronic studies and at 5-minute intervals for acute and OGTT studies. In chronic studies additional blood samples were collected on a weekly basis for the analysis of circulating markers. A final terminal blood sample was collected at the time of euthanization and used for the evaluation of circulating insulin levels. For the prototype pFUS device, stimulus (1.1 MHZ, 200 mV per pulse, 150 burst cycles, 500 us burst period) was applied to each region for 3 minutes per target. For example, pFUS was initially applied to the hepatic portal region for 3 minutes. […] There was an about 5 minute delay period in between stimulation of the first and second, or second and third anatomical target sites. Blood samples obtained from the tail vein were used to assess daily glucose (for chronic studies) and 5-minute glucose intervals (for acute studies) using a Freestyle Freedom Lite (Abbott Diabetes Inc., Alameda, CA, US). The Freestyle Freedom Light meter using a small blood 15 volume (0.3 uL) and as such no additional fluids were needed to recover total volume following blood sampling. Combination of pharmaceutical intervention and pFUS therapy was tested to determine the effects of dual therapies on therapeutic window as well as duration of efficacy. […] This dosing regimen (timing) is identical to that used in humans with dosing to occur prior to both morning and evening mealtimes. […]

[2] = test system: Zucker diabetic fatty (ZDF) rat model; conditions: previously shown treatment, cited from earlier work
[3] = low dose metformin alone cohort, FIG. 9 data 304

Molecule	remission after ultrasound cessation ([1]; low dose metformin added to dual-site stimulation (7 days ultrasound, then stopped), FIG. 9 data 302)	blood glucose [1, 3]	effectiveness (absolute decrease in blood glucose or length of time spent below 200 mg/dL) versus liraglutide alone [1, 3]	blood glucose reduction duration versus single site plus liraglutide cohort ([1]; low dose metformin plus single site (hepatoportal plexus) stimulus, FIG. 9 data 306)	effect in ZDF animals far along in disease progression ([2]; FGF1 icv, animals with >300 mg/dL average glucose)	remission in the ZDF model ([2]; FGF1 injection into the intracerebroventricular (icv) space) [week]
CN(C)C(=N)N=C(N)N [Metformin]	did not result in extended remission	temporary drop below 200 mg/dL	not as effective as the liraglutide alone cohort	not as effective	–	–
FGF1: FGF1 injected into the intracerebroventricular space; previously reported treatment	–	–	–	–	failed to work	4

From patent US12527977B2, “Combined neuromodulation techniques” (GE Precision Healthcare LLC, priority 2021, dated 2026)
